Reference: patent US20230146395A1, “Substituted Pyrimidines and Uses Thereof” (Verge Analytics, Inc., priority 2020, published 2023)

What was measured:
[1] = molecular target: T1, Full length human recombinant PIKFYVE (Homo sapiens, UniProt Q9Y2I7); assay: Inhibition of PIKfyve (microfluidic electrophoresis kinase assay, PI3P/PS substrate); format: biochemical; conditions: 12 concentrations
T1 construct: Full length human recombinant PIKFYVE; purchased Carna Biosciences (Kobe, Japan); host or cells: baculovirus expression system
In short: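 GST-tagged full-length human PIKFYVE (baculovirus; 2 nM) with fluorescent PI3P/PS (1 μM PI3P) and […] in pH 7.5 HEPES with Mg2+/Mn2+, 1% DMSO, 3 h at room temperature. PI(3,5)P product/substrate ratio read by microfluidic electrophoresis; 12-point % inhibition versus no-enzyme and DMSO controls.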

[2] = tested on: HEK 293T transfected with plasmids containing TDP-43 Q331K mutation; assay: HEK/TDP Survival assay (Cell-Titer-Glo, 48 hrs, maximal effect of rescue); format: cell-based; conditions: Homo sapiens, HEK 293T with TDP-43 Q331K, (n) in brackets
Description: HEK/TDP Survival assay: Immortalized human embryonic kidney 293T (HEK 293T) were transfected with plasmids containing TDP-43 Q331K mutation, resulting in an increase in cell death that is biologically relevant to ALS patients. Cell death is measured as reductions in the amount of ATP, an indicator of metabolically active cells, that is quantified by a luminescence Cell-Titer-Glo® (CTG) reagent. Compounds are evaluated in this model for changes in CTG compared to a no treatment group. Increased signal indicates improved survival (rescue) and decreased signal indicates decreased survival.
Cell rescue was measured in a 96-well format with eight different concentrations of the test compound over 48 hours (hrs) with 6 replicates. The Promega Cell-Titer-Glo® Luminescent Cell Viability Assay was used to quantify ATP, an indicator of metabolically active cells (see protocol: https://www.promega.com/-/media/files/resources/protocols/technical-manuals/101/celltiterglo-2-0-assay-protocol.pdf?la=en). The luminescence signal was detected using the PerkinElmer EnVision or Molecular Devices SpectraMax.
The effect of a compound at a given dose on cell viability was determined using a three step procedure. First, Hedge's g for the Cell Titer-Glo luminescence values using six untreated wells on every plate as a control was calculated. […] Finally, values from all compound-dose pairs were corrected for multiple hypothesis testing using the Empirical Bayes framework of Stephens, M. (False discovery rates: a new deal, Biostatistics, 18 [2], 2017, 275-294) yielding credible intervals for the measured effect and associated s values.
Briefly, this method computes a local false sign rate for each experiment. Analogous to the local false discovery rate of Efron, B. (Size, power and false discovery rates, Ann. Statist. 35 [4], 2007, 1351-1377) this value measures the confidence in the sign of each effect (rather than confidence in each effect being non-zero). The s values reported in the previous figures are the expected fraction of errors if estimating the sign of all effects with greater absolute local false sign rate, defined in analogy to the q value of Storey, JD (The positive false discovery rate: a Bayesian interpretation and the q-value, Ann. Statist. 31 [6] 2003, 2013-2035).
Drugs that yielded signed log s values greater than 3 were considered hits. This threshold was determined by a separate calibration experiment in which Cell Titer-Glo® was measured in blank plates consisting of untreated cells to assess the noise inherent in the assay. Data are presented as the maximal effect of rescue obtained from the dose-response curve.

[3] = tested on: ALS patient (SOD1 A4V) iPSC derived motor neurons; assay: iPSC MN Survival assay (GFP imaging, six days, hazard ratio from Cox regression); format: cell-based; conditions: Homo sapiens, survival rescue, read-out: C9 iPSC MN Significant survival rescue EC50

T1 sequence (Q9Y2I7 whole entry): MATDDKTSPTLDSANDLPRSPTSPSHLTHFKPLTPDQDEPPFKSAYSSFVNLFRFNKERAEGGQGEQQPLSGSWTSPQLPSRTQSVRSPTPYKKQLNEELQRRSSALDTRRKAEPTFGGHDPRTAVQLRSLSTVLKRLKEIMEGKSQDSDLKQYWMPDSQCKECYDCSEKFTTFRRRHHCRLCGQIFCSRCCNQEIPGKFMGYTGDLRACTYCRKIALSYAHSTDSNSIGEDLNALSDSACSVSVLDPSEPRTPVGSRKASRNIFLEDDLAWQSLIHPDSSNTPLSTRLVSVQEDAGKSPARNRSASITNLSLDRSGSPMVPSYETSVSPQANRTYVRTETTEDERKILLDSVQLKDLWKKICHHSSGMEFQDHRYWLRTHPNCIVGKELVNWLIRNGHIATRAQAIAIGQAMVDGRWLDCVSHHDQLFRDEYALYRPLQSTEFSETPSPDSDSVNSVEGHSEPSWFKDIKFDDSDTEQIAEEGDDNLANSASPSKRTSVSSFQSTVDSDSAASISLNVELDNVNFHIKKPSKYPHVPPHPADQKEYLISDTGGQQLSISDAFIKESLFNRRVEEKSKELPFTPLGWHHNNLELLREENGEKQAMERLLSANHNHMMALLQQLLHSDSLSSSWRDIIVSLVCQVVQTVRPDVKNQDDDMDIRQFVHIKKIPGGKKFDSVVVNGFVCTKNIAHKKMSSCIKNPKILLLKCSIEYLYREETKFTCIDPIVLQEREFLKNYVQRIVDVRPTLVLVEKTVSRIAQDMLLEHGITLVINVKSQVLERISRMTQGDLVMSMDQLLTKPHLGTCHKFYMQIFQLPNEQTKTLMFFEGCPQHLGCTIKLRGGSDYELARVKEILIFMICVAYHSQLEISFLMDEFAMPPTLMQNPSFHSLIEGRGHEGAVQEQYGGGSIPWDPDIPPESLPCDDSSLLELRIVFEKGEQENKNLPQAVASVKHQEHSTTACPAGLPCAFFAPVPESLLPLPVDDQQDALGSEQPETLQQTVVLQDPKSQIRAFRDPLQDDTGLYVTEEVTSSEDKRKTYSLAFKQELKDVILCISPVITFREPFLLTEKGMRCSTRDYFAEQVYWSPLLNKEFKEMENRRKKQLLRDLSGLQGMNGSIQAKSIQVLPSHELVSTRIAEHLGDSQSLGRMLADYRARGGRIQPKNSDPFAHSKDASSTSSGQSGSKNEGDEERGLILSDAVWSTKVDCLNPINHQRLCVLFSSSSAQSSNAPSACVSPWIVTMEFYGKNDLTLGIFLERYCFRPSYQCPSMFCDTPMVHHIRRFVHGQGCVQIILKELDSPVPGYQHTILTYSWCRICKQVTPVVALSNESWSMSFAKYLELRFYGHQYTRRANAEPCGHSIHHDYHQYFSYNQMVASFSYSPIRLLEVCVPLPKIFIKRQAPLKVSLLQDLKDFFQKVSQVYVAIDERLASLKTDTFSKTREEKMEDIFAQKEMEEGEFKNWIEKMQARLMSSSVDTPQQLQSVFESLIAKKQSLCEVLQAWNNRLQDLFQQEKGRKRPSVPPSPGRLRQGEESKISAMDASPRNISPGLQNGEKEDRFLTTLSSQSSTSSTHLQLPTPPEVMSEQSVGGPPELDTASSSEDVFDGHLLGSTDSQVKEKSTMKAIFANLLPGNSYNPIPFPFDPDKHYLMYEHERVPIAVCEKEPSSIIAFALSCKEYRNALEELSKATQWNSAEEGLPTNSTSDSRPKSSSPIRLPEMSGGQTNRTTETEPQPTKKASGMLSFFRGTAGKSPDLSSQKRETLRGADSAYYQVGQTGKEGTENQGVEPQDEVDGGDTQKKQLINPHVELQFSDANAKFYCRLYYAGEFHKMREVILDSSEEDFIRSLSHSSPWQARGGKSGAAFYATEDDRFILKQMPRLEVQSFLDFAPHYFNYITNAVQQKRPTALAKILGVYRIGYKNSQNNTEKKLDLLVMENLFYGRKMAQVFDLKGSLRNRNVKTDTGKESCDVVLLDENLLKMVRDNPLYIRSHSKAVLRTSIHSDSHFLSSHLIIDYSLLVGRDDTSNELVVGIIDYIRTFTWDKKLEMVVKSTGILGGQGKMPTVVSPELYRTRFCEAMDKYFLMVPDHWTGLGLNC

Row | SMILES | IC50 [1] [nM] | EC50 [2] [nM] | EC50 [3] [nM]
1 | Cc1cccc(-c2cnn(-c3nc(N4CCOCC4)c4oc(C(=O)NCC5COC5)cc4n3)c2)c1 [Compound 107, 4-morpholino-N-(oxetan-3-ylmethyl)-2-(4-(m-tolyl)-1H-pyrazol-1-yl)furo[3,2-d]pyrimidine-6-carboxamide] | 1.9 | 59.5 | 1000
2 | CCNC(=O)c1cc2nc(-n3cc(-c4cccc(C)c4)cn3)nc(N3CCOCC3)c2o1 [Compound 101, N-ethyl-4-morpholino-2-(4-(m-tolyl)-1H-pyrazol-1-yl)furo[3,2-d]pyrimidine-6-carboxamide] | 2.9 | – | 1000
3 | Cc1cccc(-c2cc(Nc3nc(N4CCOCC4)c4oc(-c5ccncc5)cc4n3)[nH]n2)c1 [Compound 3, 4-morpholino-N-[5-(m-tolyl)-1H-pyrazol-3-yl]-6-(4-pyridyl)furo[3,2-d]pyrimidin-2-amine, hydrogen chloride] | 0.8 | 16 | 3000
4 | Cc1cccc(-c2ccn(-c3nc(N4CCOCC4)c4oc(-c5ccccn5)cc4n3)n2)c1 [Compound 91, 4-morpholino-6-(pyridin-2-yl)-2-(3-(m-tolyl)-1H-pyrazol-1-yl)furo[3,2-d]pyrimidine] | 3.9 | 24.5 | 1000
5 | Cc1cccc(-c2cnn(-c3nc(N4CCOCC4)c4oc(C(=O)NC5CC5)cc4n3)c2)c1 [Compound 100, N-cyclopropyl-4-morpholino-2-(4-(m-tolyl)-1H-pyrazol-1-yl)furo[3,2-d]pyrimidine-6-carboxamide] | 1.2 | 18 | 300
6 | Cc1cccc(-c2cnn(-c3nc(N4CCOCC4)c4oc(-c5cccnc5)cc4n3)c2)c1 [Compound 102, 4-morpholino-6-(pyridin-3-yl)-2-(4-(m-tolyl)-1H-pyrazol-1-yl)furo[3,2-d]pyrimidine] | 12.1 | 43 | 1000
7 | CCNC(=O)c1cc2nc(Nc3cc(-c4ccccc4)[nH]n3)nc(N3CCOCC3)c2o1 [Compound 56, N-ethyl-4 morpholino-2-[(5-phenyl-1H-pyrazol-3-yl)amino]furo[3,2-d]pyrimidine-6-carboxamide, hydrogen chloride] | 2 | 15 | 1000
8 | Cc1cccc(-c2cnn(-c3nc(N4CCOCC4)c4oc(C(=O)NCC5CC5)cc4n3)c2)c1 [Compound 115, N-(cyclopropylmethyl)-4-morpholino-2-(4-(m-tolyl)-1H-pyrazol-1-yl)furo[3,2-d]pyrimidine-6-carboxamide] | 3.1 | 35.7 | –
9 | Cc1cccc(-c2cnn(-c3nc(N4CCOCC4)c4oc(C(=O)NC5CCN(C)C5)cc4n3)c2)c1 (stereo not shown) [Compound 124, N-(1-methylpyrrolidin-3-yl)-4-morpholino-2-(4-(m-tolyl)-1H-pyrazol-1-yl)furo[3,2-d]pyrimidine-6-carboxamide] | 4.7 | 48 | –
10 | Cc1cccc(-c2ccn(-c3nc(N4CCOCC4)c4oc(C(=O)NCCCCN(C)C)cc4n3)n2)c1 [Compound 108, N-(4-(dimethylamino)butyl)-4-morpholino-2-(3-(m-tolyl)-1H-pyrazol-1-yl)furo[3,2-d]pyrimidine-6-carboxamide] | 23.3 | 53 | –
11 | Cc1cccc(-c2cnn(-c3nc(N4CCOCC4)c4oc(-c5ccncn5)cc4n3)c2)c1 [Compound 143, 4-morpholino-6-(pyrimidin-4-yl)-2-(4-(m-tolyl)-1H-pyrazol-1-yl)furo[3,2-d]pyrimidine] | 25 | 48 | 1000
12 | Cc1cccc(-c2cnn(-c3nc(N4CCOCC4)c4oc(C(=O)NCCCS(C)(=O)=O)cc4n3)c2)c1 [Compound 119, N-(3-(methylsulfonyl)propyl)-4-morpholino-2-(4-(m-tolyl)-1H-pyrazol-1-yl)furo[3,2-d]pyrimidine-6-carboxamide] | 8.2 | 96.5 | –
13 | c1ccc(-c2cc(Nc3nc(N4CCOCC4)c4oc(-c5ccncc5)cc4n3)no2)cc1 [Compound 43, 4-morpholino-N-(5-phenylisoxazol-3-yl)-6-(pyridin-4-yl)furo[3,2-d]pyrimidin-2-amine] | 8 | 47.5 | –
14 | COCCNC(=O)c1cc2nc(-n3ccc(-c4cccc(C)c4)n3)nc(N3CCOCC3)c2o1 [Compound 93, N-(2-methoxyethyl)-4-morpholino-2-(3-(m-tolyl)-1H-pyrazol-1-yl)furo[3,2-d]pyrimidine-6-carboxamide] | 47.3 | 60 | –
15 | Cc1cccc(-c2cnn(-c3nc(N4CCOCC4)c4oc(C(=O)NC5CCOC5)cc4n3)c2)c1 (stereo not shown) [Compound 126, 4-morpholino-N-(tetrahydrofuran-3-yl)-2-(4-(m-tolyl)-1H-pyrazol-1-yl)furo[3,2-d]pyrimidine-6-carboxamide] | 2.9 | 30.5 | –
16 | Cc1cccc(-c2cnn(-c3nc(N4CCOCC4)c4oc(C(=O)NCCCN(C)C)cc4n3)c2)c1 [Compound 111, N-(3-(dimethylamino)propyl)-4-morpholino-2-(4-(m-tolyl)-1H-pyrazol-1-yl)furo[3,2-d]pyrimidine-6-carboxamide] | 3.1 | 35.5 | –
17 | Cc1cccc(-c2cnn(-c3nc(N4CCOCC4)c4oc(-c5ccccn5)cc4n3)c2)c1 [Compound 103, 4-morpholino-6-(pyridin-2-yl)-2-(4-(m-tolyl)-1H-pyrazol-1-yl)fur[3,2-d]pyrimidine] | 11.2 | – | 1000
18 | Cc1cccc(-c2cnn(-c3nc(N4CCOCC4)c4oc(-c5cc(C)n[nH]5)cc4n3)c2)c1 [Compound 144, 6-(3-methyl-1H-pyrazol-5-yl)-4-morpholino-2-(4-(m-tolyl)-1H-pyrazol-1-yl)furo[3,2-d]pyrimidine] | 0.3 | 13 | –
19 | Cc1cccc(-c2cnn(-c3nc(N4CCOCC4)c4oc(C(=O)NC5COC5)cc4n3)c2)c1 [Compound 106, 4-morpholino-N-(oxetan-3-yl)-2-(4-(m-tolyl)-1H-pyrazol-1-yl)furo[3,2-d]pyrimidine-6-carboxamide] | 10.2 | 53.5 | 1000
20 | Cc1cccc(-c2ccn(-c3nc(N4CCOCC4)c4oc(-c5cccnc5)cc4n3)n2)c1 [Compound 90] | 7.7 | 20.5 | –
21 | [2H]C1([2H])OC([2H])([2H])C([2H])([2H])N(c2nc(-n3cc(-c4cccc(C)c4)cn3)nc3cc(C(=O)NCC)oc23)C1([2H])[2H] [Compound 131, N-ethyl-4-morpholino(dg)-2-(4-(m-tolyl)-1H-pyrazol-1-yl)furo[3,2-d]pyrimidine-6-carboxamide] | 18 | 17 | –
22 | CCNC(=O)c1cc2nc(-n3ccc(-c4cccc(C)c4)n3)nc(N3CCOCC3)c2o1 [Compound 95, N-ethyl-4-morpholino-2-(3-(m-tolyl)-1H-pyrazol-1-yl)furo[3,2-d]pyrimidine-6-carboxamide] | 11.8 | 94 | –
23 | [2H]C1([2H])OC([2H])([2H])C([2H])([2H])N(c2nc(-n3cc(-c4cccc(C)c4)cn3)nc3cc(-c4cccnc4)oc23)C1([2H])[2H] [Compound 132, 4-morpholino (dg)-6-(pyridin-3-yl)-2-(4-(m-tolyl)-1H-pyrazol-1-yl)furo[3,2-d]pyrimidine] | 39.9 | 15 | –
24 | COCCNC(=O)c1cc2nc(-n3cc(-c4cccc(C)c4)cn3)nc(N3CCOCC3)c2o1 [Compound 117, N-(2-methoxyethyl)-4-morpholino-2-(4-(m-tolyl)-1H-pyrazol-1-yl)fur[3,2-d]pyrimidine-6-carboxamide] | 37.3 | 74.3 | –
25 | Cc1cccc(-c2ccn(-c3nc(N4CCOCC4)c4oc(C(=O)NC5CC5)cc4n3)n2)c1 [Compound 96, N-cyclopropyl-4-morpholino-2-(3-(m-tolyl)-1H-pyrazol-1-yl)furo[3,2-d]pyrimidine-6-carboxamide] | 15 | 17.5 | –
